Experimental data from patent US9340559B2, “Proteasome inhibitor delanzomib for use in the treatment of lupus” (Cephalon, Inc., priority 2011, dated 2016).

What was measured:
NZM mice [1] = experiment: Survival, NZM lupus nephritis model, ip dosing (Example 2); format: in vivo, mouse
MRL/lpr mice [2] = experiment: Spleen plasma cells by flow cytometry, MRL/lpr mice
NZM mice [3] = experiment: Body weight progression, NZM mice (Example 2); format: in vivo, mouse
NZM mice [4] = experiment: Renal histopathology scoring (kidney IC-GN), NZM mice (Example 2); format: in vivo, mouse
Protocol: For histological analyses, the left kidney from each animal is removed and fixed in 10% buffered neutral formalin (EMD) for 48 hours on an orbital rocker at 25° C., then washed overnight with running dH2O and stored in 70% ethanol at 4° C. until ready to be processed. Kidney stains used for histological analyses included hematoxylin and eosin (H&E), Periodic Acid Schiff (PAS) and Trichrome stains (Wistar Institute, Philadelphia, Pa.). All 3 stained sections are used by the pathologist for scoring purposes. All histological scoring is performed blinded and by an independent board certified veterinary medical pathologist (Julie Engiles, VMD, DACVP). Multiple stains are used to determine score values. Images in FIG. 39 show worst affected area of section selected blindly by the pathologist.
Kidney IC-GN Scoring Method (Smith, Dong et al. 2007):
1. Glomerular cellularity—Score 1-5: Null, low, moderate, high, severe
2. Glomerular necrosis—Score 1-5: Null, low, moderate, high, severe
3. Glomerulosclerosis—Score 1-5: Null, low, moderate, high, severe
4. Interstitial infiltration—Score 1-5: Null, low, moderate, high, severe
5. Tubular atrophy—Score 1-5: Null, low, moderate, high, severe
6. Interstitial fibrosis—Score 1-5: Null, low, moderate, high, severe
7. Vasculitis—Score 1-5: Null, low, moderate, high, severe
Specific Pathologist Definitions: • Necrosis is defined by the presence of nuclear debris/pyknosis within the glomerular tuft indicative of “necrosis.” In many samples, this is a very mild, rare finding within only a very few segments of the glomerular tuft. Also consider effacement of the glomerular tuft by PAS positive, Trichrome negative material necrosis. • Glomerular sclerosis is defined by increased fibroplasia or fibrosis within the glomerular tuft or capsule. […] Most of the vascular changes are mild and could be considered “arteriosclerosis” characterized by proliferation of the smooth muscle cells, and hyalinization of the extracellular matrix. This change may reflect hypertension secondary to glomerular pathology. In very few animals is there overt “vasculitis.” Most inflammatory changes are within the walls of the blood vessels, with little to no damage to the endothelium, and no overt hemorrhage/fibrin leakage. Many also have perivascular rims of fibroblasts.

MRL/lpr mice [5] = experiment: Urinalysis: urine leukocytes (leukouria), Uristix, MRL/lpr mice; format: in vivo, mouse
Protocol: Urine samples are acid precipitated for total protein recovery and analysis. Samples for which enough urine remained are used for Uristix® leukouria analysis. Briefly, a standard protein solution is prepared from normal mouse sera and is used as a standard for mouse urinary protein assay by turbidity. Standard preparation is as follows: 0, 5, 10, 15, 20, 30, 40, and 50 μL of a 4 mg/mL mouse sera standard protein solution as provided in the kit are added in duplicate into two columns. PBS is added to individual wells to adjust the final volume to 50 μL. For urine sample preparation, urine samples are centrifuged at 9880×g for 3 minutes using a tabletop micro-centrifuge. Urine supernatant (1-50 μL) is added in duplicate. PBS is added to adjust the volume to 50 μL total. For the turbidity assay: 25 μL of 0.1 N HCl is added into blank columns and 250 μL of 3% sulfosalicyclic acid into the test columns. The microplate is incubated for 10 minutes at RT and plates are read using an ELISA reader with single beam at 450 nm. For the Uristix® strip assay, strips are laid out and labeled. Twenty microliters of urine are placed onto each test strip square and incubated for at least 30 seconds before the result is recorded. For all total urine analysis plate-based assays, values below the limit of detection set by the lowest point along the standard or set by the manufacturer are considered out of range and are not estimated, but assumed the lowest point along the standard curve for that particular assay.

[6] = COMPOUND A once and twice weekly

SMILES: CC(C)C[C@H](NC(=O)[C@@H](NC(=O)c1cccc(-c2ccccc2)n1)[C@@H](C)O)B(O)O [COMPOUND A, [(1R)-1-[[(2S,3R)-3-hydroxy-2-[6-phenyl-pyridine-2-carbonyl)amino]-1-oxobutyl]amino]-3-methylbutylboronic acid]
- animals remaining at the end of the study (day 310) (NZM mice [1]; COMPOUND A treatment groups, vehicle 45%): 100%
- EOS survival, percent live mice from original number (NZM mice [1]; G1 3 mg/kg ip, 1× wk): 100%
- survival increase relative to vehicle (NZM mice [1]; G1: 3 mg/kg ip once per week): 55%
- EOS survival, percent live mice from original number (NZM mice [1]; G2 3 mg/kg ip, 2× wk): 91%
- survival increase relative to vehicle (NZM mice [1]; G2: 3 mg/kg ip twice weekly): 46%
- mice still alive at day 56 (NZM mice [1]; both treatment groups of the substance): 100%
- EOS plasma cells, percent change vs vehicle (MRL/lpr mice [2]; G1: 3 mg/kg iv, 1× wk): −67%
- EOS plasma cells, percent change vs vehicle (MRL/lpr mice [2]; G2: 3 mg/kg iv, 2× wk): −67%
- EOS plasma cells, percent change vs vehicle (MRL/lpr mice [2]; G3: 10 mg/kg po, 2× wk): −67%
- spleen plasma cells decrease vs vehicle (MRL/lpr mice [2]; Groups 1-3 (each)): 67%
- Body mass AUC, percent change vs vehicle (NZM mice [3]; G1 3 mg/kg ip, 1× wk): +9%
- body weight increase compared to vehicle (NZM mice [3]; G1: 3 mg/kg ip once per week): 9%
- Body mass AUC, percent change vs vehicle (NZM mice [3]; G2 3 mg/kg ip, 2× wk): +10%
- body weight increase compared to vehicle (NZM mice [3]; G2: 3 mg/kg ip twice weekly): 10%
- p, glomerular cellularity (GC) vs G3 Bortezomib 0.3 mg/kg 1× wk (NZM mice [4]; 3 mg/kg 1× wk): p < 0.01
- p, glomerular cellularity (GC) vs G6 DEX 1.5 mg/kg 1× wk (NZM mice [4]; 3 mg/kg 1× wk): p < 0.01
- p, glomerular cellularity (GC) vs G7 Vehicle (NZM mice [4]; 3 mg/kg 1× wk): p < 0.001
- p, glomerular necrosis (GN) vs G3 Bortezomib 0.3 mg/kg 1× wk (NZM mice [4]; 3 mg/kg 1× wk): p < 0.05
- p, glomerular necrosis (GN) vs G6 DEX 1.5 mg/kg 1× wk (NZM mice [4]; 3 mg/kg 1× wk): p < 0.01
- p, glomerulosclerosis (GS) vs G3 Bortezomib 0.3 mg/kg 1× wk (NZM mice [4]; 3 mg/kg 1× wk): p < 0.001
- p, glomerulosclerosis (GS) vs G6 DEX 1.5 mg/kg 1× wk (NZM mice [4]; 3 mg/kg 1× wk): p < 0.001
- p, glomerulosclerosis (GS) vs G7 Vehicle (NZM mice [4]; 3 mg/kg 1× wk): p < 0.01
- p, interstitial fibrosis (IF) vs G3 Bortezomib 0.3 mg/kg 1× wk (NZM mice [4]; 3 mg/kg 1× wk): p < 0.01
- p, interstitial fibrosis (IF) vs G6 DEX 1.5 mg/kg 1× wk (NZM mice [4]; 3 mg/kg 1× wk): p < 0.001
- p, interstitial fibrosis (IF) vs G7 Vehicle (NZM mice [4]; 3 mg/kg 1× wk): p < 0.01
- p, interstitial infiltration (II) vs G6 DEX 1.5 mg/kg 1× wk (NZM mice [4]; 3 mg/kg 1× wk): p < 0.01
- p, interstitial infiltration (II) vs G7 Vehicle (NZM mice [4]; 3 mg/kg 1× wk): p < 0.05
- p, tubular atrophy (TA) vs G3 Bortezomib 0.3 mg/kg 1× wk (NZM mice [4]; 3 mg/kg 1× wk): p < 0.001
- p, tubular atrophy (TA) vs G6 DEX 1.5 mg/kg 1× wk (NZM mice [4]; 3 mg/kg 1× wk): p < 0.001
- p, tubular atrophy (TA) vs G7 Vehicle (NZM mice [4]; 3 mg/kg 1× wk): p < 0.001
- p, vasculitis (VA) vs G6 DEX 1.5 mg/kg 1× wk (NZM mice [4]; 3 mg/kg 1× wk): p < 0.01
- p, vasculitis (VA) vs G7 Vehicle (NZM mice [4]; 3 mg/kg 1× wk): p < 0.01
- p, glomerular cellularity (GC) vs G3 Bortezomib 0.3 mg/kg 1× wk (NZM mice [4]; 3 mg/kg 2× wk): p < 0.01
- p, glomerular cellularity (GC) vs G6 DEX 1.5 mg/kg 1× wk (NZM mice [4]; 3 mg/kg 2× wk): p < 0.01
- p, glomerular cellularity (GC) vs G7 Vehicle (NZM mice [4]; 3 mg/kg 2× wk): p < 0.001
- p, glomerular necrosis (GN) vs G3 Bortezomib 0.3 mg/kg 1× wk (NZM mice [4]; 3 mg/kg 2× wk): p < 0.05
- p, glomerular necrosis (GN) vs G6 DEX 1.5 mg/kg 1× wk (NZM mice [4]; 3 mg/kg 2× wk): p < 0.01
- p, glomerulosclerosis (GS) vs G3 Bortezomib 0.3 mg/kg 1× wk (NZM mice [4]; 3 mg/kg 2× wk): p < 0.001
- p, glomerulosclerosis (GS) vs G6 DEX 1.5 mg/kg 1× wk (NZM mice [4]; 3 mg/kg 2× wk): p < 0.001
- p, glomerulosclerosis (GS) vs G7 Vehicle (NZM mice [4]; 3 mg/kg 2× wk): p < 0.01
- p, interstitial fibrosis (IF) vs G3 Bortezomib 0.3 mg/kg 1× wk (NZM mice [4]; 3 mg/kg 2× wk): p < 0.01
- p, interstitial fibrosis (IF) vs G6 DEX 1.5 mg/kg 1× wk (NZM mice [4]; 3 mg/kg 2× wk): p < 0.001
- p, interstitial fibrosis (IF) vs G7 Vehicle (NZM mice [4]; 3 mg/kg 2× wk): p < 0.01
- p, interstitial infiltration (II) vs G6 DEX 1.5 mg/kg 1× wk (NZM mice [4]; 3 mg/kg 2× wk): p < 0.01
- p, interstitial infiltration (II) vs G7 Vehicle (NZM mice [4]; 3 mg/kg 2× wk): p < 0.05
- p, tubular atrophy (TA) vs G3 Bortezomib 0.3 mg/kg 1× wk (NZM mice [4]; 3 mg/kg 2× wk): p < 0.01
- p, tubular atrophy (TA) vs G6 DEX 1.5 mg/kg 1× wk (NZM mice [4]; 3 mg/kg 2× wk): p < 0.001
- p, tubular atrophy (TA) vs G7 Vehicle (NZM mice [4]; 3 mg/kg 2× wk): p < 0.001
- p, vasculitis (VA) vs G7 Vehicle (NZM mice [4]; 3 mg/kg 2× wk): p < 0.05
- glomerular cellularity reduction vs vehicle (NZM mice [4]; [6]): ~50%
- glomerulosclerosis reduction vs vehicle (NZM mice [4]; [6]): ~53%
- interstitial fibrosis reduction vs vehicle (NZM mice [4]; [6]): ~55%
- interstitial infiltration reduction vs vehicle (NZM mice [4]; [6]): 43-46%
- tubular atrophy reduction vs vehicle (NZM mice [4]; [6]): 55-59%
- vasculitis reduction vs vehicle (NZM mice [4]; [6]): 51-55%
- Kidney glomerular cellularity, percent change vs vehicle (NZM mice [4]; G1 3 mg/kg ip, 1× wk): −48%
- Kidney glomerular necrosis, percent change vs vehicle (NZM mice [4]; G1 3 mg/kg ip, 1× wk): −29%
- Kidney glomerulosclerosis, percent change vs vehicle (NZM mice [4]; G1 3 mg/kg ip, 1× wk): −54%
- Kidney interstitial fibrosis, percent change vs vehicle (NZM mice [4]; G1 3 mg/kg ip, 1× wk): −56%
- Kidney interstitial infiltration, percent change vs vehicle (NZM mice [4]; G1 3 mg/kg ip, 1× wk): −46%
- Kidney tubular atrophy, percent change vs vehicle (NZM mice [4]; G1 3 mg/kg ip, 1× wk): −59%
- Kidney vasculitis, percent change vs vehicle (NZM mice [4]; G1 3 mg/kg ip, 1× wk): −55%
- Kidney glomerular cellularity, percent change vs vehicle (NZM mice [4]; G2 3 mg/kg ip, 2× wk): −50%
- Kidney glomerular necrosis, percent change vs vehicle (NZM mice [4]; G2 3 mg/kg ip, 2× wk): −29%
- Kidney glomerulosclerosis, percent change vs vehicle (NZM mice [4]; G2 3 mg/kg ip, 2× wk): −53%
- Kidney interstitial fibrosis, percent change vs vehicle (NZM mice [4]; G2 3 mg/kg ip, 2× wk): −55%
- Kidney interstitial infiltration, percent change vs vehicle (NZM mice [4]; G2 3 mg/kg ip, 2× wk): −43%
- Kidney tubular atrophy, percent change vs vehicle (NZM mice [4]; G2 3 mg/kg ip, 2× wk): −55%
- Kidney vasculitis, percent change vs vehicle (NZM mice [4]; G2 3 mg/kg ip, 2× wk): −51%
- decrease in renal histopathology score over several parameters vs vehicle (NZM mice [4]; mouse, in vivo): 45-55%
- Urine AUC leukocytes, percent change vs vehicle (MRL/lpr mice [5]; G1: 3 mg/kg iv, 1× wk): −96%
- Urine AUC leukocytes, percent change vs vehicle (MRL/lpr mice [5]; G2: 3 mg/kg iv, 2× wk): −94%
- Urine AUC leukocytes, percent change vs vehicle (MRL/lpr mice [5]; G3: 10 mg/kg po, 2× wk): −94%
